Results from patent US5496703A, “Indirect immunoassay for dioxinlike compounds” (priority 1993, dated 1996).
“Also recorded” adds a separate entry of the source.

Columns and labels:
C57BL/6J mouse strain = settings: cited from earlier work
DBA/2 strain = settings: DBA/2 mouse; cited from earlier work
[1] = test system: total cell lysate protein tyrosylphosphorylation in X3 human lymphoblastoma cells; test: ELISA with antiphosphotyrosine monoclonal antibody, X3 cell lysate; format: cell-based; settings: 16 hours
Experimental: The X3 human lymphoblastoma cells (Genetest, Wolburn, Mass.) were grown in 75 cm^2 T-flasks in RPMI 1640 medium (Gibco) containing 9% horse serum. Any cell or cell line expressing cytochrome P-450IA1 may be used. The cells were cultured at 37° C. in a 5% CO2 (balance air) environment. Cells were subcultured by centrifuging (1000 rpm, 3 minutes) and resuspended in fresh media to a volume of 50 mL (at a cell density of 1.0×10^6 cells/mL). The TCDD-corn oil solution was homogenized with serum to a final concentration of 0.10 μg/mL. The TCDD-serum was added at concentrations of 0, 0.02, 0.05, 0.1, 0.5 and 1.0 nM per flask and incubated for 16 hours. After the appropriate incubation time, the cells were harvested by centrifugation and washed three times (PBS, […]). A final cell count was then determined.
ELISA were performed with 96-well microtiter plates precoated with antigen. X3 cell lysate was used as antigen and was prepared as a series of geometric dilutions ranging from 0.4 to 500 μg protein/mL PBS. One-tenth mL from each dilution was promptly pipetted into the wells of the microtiter plate in quadruplicate. […] Peroxidase activity was determined after incubation with substrate (0.03% H2 O2 and 1 mM 2,2'-azinodi(d-ethyl-benzthiazoline sulfonic acid-6) dissolved in 100 mM sodium citrate (pH 4.2) at 22° C. At the first visualization of color change A415 values were recorded.

phospholipase C = settings: certain cell lines; cited from earlier work
[2] = test system: protein tyrosylphosphorylation of hepatic S-9 proteins; test: Immunoblot / densitometry of hepatic S-9 phosphotyrosyl proteins, mice dosed i.p.; format: in vivo, C57BL/6 mice
Experimental: Female, C57BL/6 mice (or any cytochrome P-450IA1 inducible strain) were obtained from Harton Sprague Dawley (Indianapolis, Ind.). Experiments were performed using four to six week old, female mice weighing approximately 16 to 20 g. Mice were fed Prolab RMH 1000 rat, mouse and hamster food (Agway, Cortland, N.Y.) and received tap water ad libitum. All mice were housed three to five per cage and maintained on a photoperiod of 12 hours. Mice were killed 24 hours following an intraperitoneal injection of either corn oil alone or TCDD (Analabs) at 0.25, 0.5, 1, 2, 4, 10, 50 μg/kg, the volume of the injections ranged from 0.1 to 0.2 ml per mouse. Hepatic S-9 fractions were prepared by homogenizing the liver in 3 times the volume of 0.15M KCl. Following a 9000×g centrifugation for 20 minutes, the supernatant (S-9) fraction was carefully removed and quickly frozen for storage at -80° C.
The separation of S-9 proteins by means of SDS PAGE was performed by mixing the S-9 1:1 with a double strength sodium dodecyl sulfate sample buffer and heating the solution at 100° C. for 3 minutes prior to one-dimensional SDS polyacrylamide gel electrophoresis with 10% polyacrylamide. After electrophoresis, a Milliblot SDS electroblot apparatus (Millipore, Bedford, Mass.) was used to transfer the proteins from the polyacrylamide gels to an Immobilon™ membrane filter (Millipore). Complete transfers were accomplished in 25-30 minutes at 500 mA and were assessed by tracking pre-stained molecular weight standards onto the membrane filter. Membrane filters were blocked by incubating in TBS (Tris buffered saline) containing 5% milk for 30 minutes at 37° C. The membranes were then washed in TBST (TBS with 0.05% Tween 20) and incubated overnight with antiphosphotyrosine monoclonal antibody (1.5 μg/mL) in TBST. The primary antibody was removed, and the membranes were washed four times in TBST. To visualize the antibody reaction, the membranes were incubated for 3 hours at 37° C. with alkaline phosphatase-conjugated antimouse IgG diluted 1:1000 in TBST, washed 3 times in TBST, and developed for 15 to 30 minutes. Determination of molecular weights of immuno-stained proteins was performed by adding molecular weight standards (Bio Rad) to reference lanes and staining the membrane filters with amido black.
The indicated densitometric measurements were made on a BioImage AK Kodak Visage 110.
An estimate of the limit of detection of dioxinlike activity can be made using the 0.25 μg/kg dose as the minimally effective dose. At this level of administration of TCDD, the 37 kDalton band becomes easily visible. Assuming a 20 g mouse, the diethyl ether extract would have to contain 5 ng of dioxin equivalents to initiate a tryosylphosphorylation of the 37 kDalton protein. […]

protein kinase C = settings: cited from earlier work
[3] = test system: cytochrome P-450IA1 aryl hydrocarbon hydroxylase; settings: 3 days post-injection (Poland et al. 1974); cited from earlier work

Clc1cc2c(cc1Cl)Oc1cc(Cl)c(Cl)cc1O2 [TCDD, 2,3,7,8-tetrachlorodibenzo-p-dioxin]
susceptibility to TCDD-induced toxicity (C57BL/6J mouse strain): very susceptible | susceptibility to TCDD toxicity (DBA/2 strain): relatively resistant | concentration of maximal total protein tyrosylphosphorylation [1]: 1 nM | EC50 ([1]; Homo sapiens): 0.13 nM | phospholipase C activation (phospholipase C): activates protein kinase C in certain cell lines but also phospholipase C | minimal effective dose ([2]; Mus musculus, ip, 24 h, in vivo limit-of-detection estimate, read-out: minimally effective dose (37 kDalton band easily visible)): 0.25 µg/kg | ED50 ([2]; Mus musculus, ip, densitometry of immunoblot, i.p., 24 hours after dosing, read-out: ED50, 44 kDalton protein tyrosylphosphorylation): 0.5 µg/kg | dose of maximal 44 kDalton protein tyrosylphosphorylation ([2]; densitometry of immunoblot, i.p., 24 hours after dosing): 1 μg TCDD/kg | tyrosylphosphorylation of the 37 kDalton protein ([2]; immunoblot, i.p., 24 hours): resulted in the tyrosylphosphorylation of the 37 kDalton protein; also recorded: highly phosphorylated at tyrosine residues | protein kinase C activity (protein kinase C): increases the activity of protein kinase C | published ED50, induction of aryl hydrocarbon hydroxylase specific activity [3]: approximately 3 μg/kg
